≈ marks a conversion by molar mass, not a printed value. Read-outs that look alike come from different tables or passages of the source.
Key:
Format in all cases: cell-based
[1] = system: Haemophilus influenzae 1218; test: MIC, microtiter broth dilution (NCCLS M100-S14), H. influenzae 1218 (susceptible)
How it was run: (§1)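 Stock solutions of 40 mg/ml in DMSO were used. MIC values came from microtiter-tray broth dilution following NCCLS M100-S14 guidelines.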

[2] = system: Streptococcus pyogenes 1079; test: MIC, microtiter broth dilution (NCCLS M100-S14), S. pyogenes 1079 (ermB)
How it was run: as §1

[3] = system: Streptococcus pneumoniae 1095; settings: microtiter broth dilution
How it was run: as §1

[4] = system: Streptococcus pneumoniae 1175; settings: microtiter broth dilution
How it was run: as §1

[5] = system: Streptococcus pneumoniae 1016; test: MIC, microtiter broth dilution (NCCLS M100-S14), S. pneumoniae 1016 (susceptible)
How it was run: as §1

[6] = H. influenzae 1218 (susceptible)
[7] = S. pneumoniae 1016 (susceptible)

Row | Compound | MIC H. influenzae 1218 ([1]; Haemophilus influenzae 1218) [µg/mL] | MIC S. pyogenes 1079 ([2]; Streptococcus pyogenes 1079) [µg/mL] | MIC S. pneumo. 1095 ([3]; Streptococcus pneumoniae 1095) [µg/mL] | MIC S. pneumo. 1175 ([4]; Streptococcus pneumoniae 1175) [µg/mL] | MIC S. pneumo. 1016 ([5]; Streptococcus pneumoniae 1016) [µg/mL] | MIC H. influenzae 1218 [1, 6] [µg/mL] | MIC S. pyogenes 1079 ([2]; S. pyogenes 1079 (ermB)) [µg/mL] | MIC S. pneumo. 1095 ([3]; S. pneumoniae 1095 (ermB)) [µg/mL] | MIC S. pneumo. 1175 ([4]; S. pneumoniae 1175 (mefA)) [µg/mL] | MIC S. pneumo. 1016 [5, 7] [µg/mL]
1 | CCC1OC(=O)C(C)C(=O)C(C)C(OC2OC(C)CC(N(C)C)C2O)C(C)(OC)CC(C)C(=O)C(C)C2N(C3CN(S(=O)(=O)c4ccc(-n5ccnc5)c(F)c4)C3)C(=O)OC12C (stereo not drawn) [Example 3.81, 3-descladinosyl-11,12-dideoxy-4-O-methyl-3-oxo-12,11-(oxycarbonyl-(1-(3-fluoro-4-(1H-imidazol-1-yl)benzenesulfonyl)-azetidin-3-yl)-imino)-erythromycin A] | 1 (≈ 1.12 µM) | 4 (≈ 4.48 µM) | <0.06 | <0.06 | <0.06 | – | – | – | – | –
2 | CCC1OC(=O)C(C)C(=O)C(C)C(OC2OC(C)CC(N(C)C)C2O)C(C)(OC)CC(C)C(=O)C(C)C2N(CC3CCN(C(=O)c4cc5ccccn5n4)C3)C(=O)OC12C (stereo not drawn) [11.16] | – | – | – | – | – | 8 (≈ 9.52 µM) | >64.00 | 8 (≈ 9.52 µM) | 0.5 (≈ 0.595 µM) | <0.06
3 | CCC1OC(=O)C(C)C(=O)C(C)C(OC2OC(C)CC(N(C)C)C2O)C(C)(OC)CC(C)C(=O)C(C)C2N(C3CN(S(=O)(=O)c4ccc(-c5csnn5)cc4)C3)C(=O)OC12C (stereo not drawn) [Example 3.45, 3-descladinosyl-11,12-dideoxy-6-O-methyl-3-oxo-12,11-(oxycarbonyl-(1-(4-(1,2,3-thiadiazol-4-yl)benzenesulfonyl)-azetidin-3-yl)-imino)-erythromycin A] | 0.25 (≈ 0.28 µM) | 0.12 (≈ 0.135 µM) | <0.06 | <0.06 | <0.06 | – | – | – | – | –
4 | CCC1OC(=O)C(C)C(=O)C(C)C(OC2OC(C)CC(N(C)C)C2O)C(C)(OC)CC(C)C(=O)C(C)C2N(CC3CCN(Cc4ccnc5ccccc45)CC3)C(=O)OC12C (stereo not drawn) [15.02] | – | – | – | – | – | 32 (≈ 37.6 µM) | >64.00 | >64.00 | 0.5 (≈ 0.587 µM) | <0.06
5 | CCC1OC(=O)C(C)C(=O)C(C)C(OC2OC(C)CC(N(C)C)C2O)C(C)(OC)CC(C)C(=O)C(C)C2N(CC3CCCN3C(=O)c3cc4ncccn4n3)C(=O)OC12C (stereo not drawn) [10.53] | – | – | – | – | – | 1 (≈ 1.19 µM) | >64.00 | <0.06 | 0.12 (≈ 0.143 µM) | <0.06
6 | CC[C@H]1OC(=O)[C@H](C)C(=O)[C@H](C)[C@@H](O[C@@H]2O[C@H](C)C[C@H](N(C)C)[C@H]2O)[C@](C)(OC)C[C@@H](C)C(=O)[C@H](C)[C@H]2N(CC3(O)CN(C(=O)c4ccc5cccnc5n4)C3)C(=O)O[C@]12C [7.17] | – | – | – | – | – | 1 (≈ 1.17 µM) | >64.00 | <0.06 | 0.5 (≈ 0.585 µM) | <0.06
7 | CCC1OC(=O)C(C)C(=O)C(C)C(OC2OC(C)CC(N(C)C)C2O)C(C)(OC)CC(C)C(=O)C(C)C2N(C3CN(S(=O)(=O)c4ccc5cnsc5c4)C3)C(=O)OC12C (stereo not drawn) [Example 3.104, 3-descladinosyl-11,12-dideoxy-6-O-methyl-3-oxo-12,11-(oxycarbonyl-(1-(benzo[d]isothiazole-6-sulfonyl)-azetidin-3-yl)-imino)-erythromycin A] | <0.063 | 1 (≈ 1.16 µM) | <0.063 | <0.063 | <0.063 | – | – | – | – | –
8 | CCC1OC(=O)C(C)C(=O)C(C)C(OC2OC(C)CC(N(C)C)C2O)C(C)(OC)CC(C)C(=O)C(C)C2N(C3CN(S(=O)(=O)c4cccc5nccnc45)C3)C(=O)OC12C (stereo not drawn) [Example 3.93, 3-descladinosyl-11,12-dideoxy-4-O-methyl-3-oxo-12,11-(oxycarbonyl-(1-(quinoxaline-5-sulfonyl)-azetidin-3-yl)-imino)-erythromycin A] | 0.25 (≈ 0.291 µM) | 1 (≈ 1.16 µM) | <0.06 | <0.06 | <0.06 | – | – | – | – | –
9 | CCC1OC(=O)C(C)C(=O)C(C)C(OC2OC(C)CC(N(C)C)C2O)C(C)(OC)CC(C)C(=O)C(C)C2N(C3CN(S(=O)(=O)c4ccc(-c5nnco5)cc4)C3)C(=O)OC12C (stereo not drawn) [Example 3.56, 3-descladinosyl-11,12-dideoxy-6-O-methyl-3-oxo-12,11-(oxycarbonyl-(1-(4-(1,3,4-oxadiazol-2-yl)benzenesulfonyl)-azetidin-3-yl)-imino)-erythromycin A] | 1 (≈ 1.14 µM) | 0.5 (≈ 0.571 µM) | <0.06 | <0.06 | <0.06 | – | – | – | – | –
10 | CCC1OC(=O)C(C)C(=O)C(C)C(OC2OC(C)CC(N(C)C)C2O)C(C)(OC)CC(C)C(=O)C(C)C2N(C3CCN(Cc4cnc5ccccc5c4)C3)C(=O)OC12C (stereo not drawn) [Example 9.04, (quinolin-3-yl)methyl] | – | – | – | – | – | 0.5 (≈ 0.608 µM) | 32 (≈ 38.9 µM) | <0.06 | <0.06 | <0.06
11 | CCC1OC(=O)C(C)(F)C(=O)C(C)C(OC2OC(C)CC(N(C)C)C2O)C(C)(OC)CC(C)C(=O)C(C)C2N(CC3CCCN3C(=O)c3nccc4ccccc34)C(=O)OC12C (stereo not drawn) [10.29] | – | – | – | – | – | 2 (≈ 2.3 µM) | 16 (≈ 18.4 µM) | <0.06 | 0.12 (≈ 0.138 µM) | <0.06
12 | CCC1OC(=O)C(C)C(=O)C(C)C(OC2OC(C)CC(N(C)C)C2O)C(C)(OC)CC(C)C(=O)C(C)C2N(CC3CN(Cc4ccc5ncccc5c4)C3)C(=O)OC12C (stereo not drawn) [Example 4.14, 3-descladinosyl-11,12-dideoxy-6-O-methyl-3-oxo-12,11-(oxycarbonyl-(1-((quinolin-6-yl)-methyl)-(azetidin-3-yl)-methyl)-imino)-erythromycin A] | 0.5 (≈ 0.608 µM) | 8 (≈ 9.72 µM) | <0.06 | <0.06 | <0.06 | – | – | – | – | –

From patent publication US7462600B2, “Macrolides” (Pfizer Inc, priority 2004, dated 2008)
